Measurements published in patent publication US20050221328A1, “Inhibitors of inflammatory gene activity and cholesterol biosynthesis” (Wyeth, priority 2002, published 2005).

How the values were obtained:
[1] = test system: prostaglandin D synthase, IPS; assay: Liver expression of prostaglandin D synthase and IPS; format: in vivo; settings: mouse liver; 30 mg/kg/day genistein, 5 mg/kg/day raloxifene
Text: Referring to FIGS. 6a and 6b, experiments were constructed and performed to establish that EE induction of gene expression is not required for ERα inhibition of IL-1β gene inductions. […] The expression level in the vehicle+PBS treated mice was defined as 1.0. […] However, there was no correlation between the ability of these compounds to inhibit IL-1β gene induction (EE>genistein>raloxifene) and the ability of these compounds to stimulate prostaglandin D synthase expression (EE>>raloxifene>genistein).

[2] = test system: Fnk, JAB, LIX, bcl-3 and SHP; assay: Liver expression of Fnk, JAB, LIX, bcl-3 and SHP by realtime PCR after estrogen receptor ligand pretreatment and IL-1β; settings: 100 ug/kg/day EE, 5 mg/kg/day raloxifene
Method: Referring to FIG. 3a, to distinguish these two mechanisms, the IL-1β fold induction of Fnk, JAB, LIX, and bcl-3 and the IL-1β fold repression of SHP was quantified in animals pretreated with vehicle (black bars) or 100 ug/kg/day EE (grey bars). Liver RNA levels of each gene (mean +/−SEM) were determined by realtime PCR of RNA from each individual animal.
Referring to FIGS. 4a, 4b, 4c, 4d and 4e, experiments were conducted to determine whether EE blocks IL-1β induction of gene expression by an estrogen receptor (ER) dependent mechanism. Estrogens can regulate gene expression by many mechanisms including ER independent pathways such as antioxidant mechanisms. […] Liver expression levels of Fnk, JAB, LIX, bcl-3 and SHP (mean +/−SEM) were determined by realtime PCR.
Referring to FIGS. 5a, 5b, 5c, 5d, and 5e, experiments were conducted to determine whether ERα is required for EE regulation of gene expression in the liver. To determine whether ERα or ERβ mediated the EE effects on IL-1β gene expression in the liver, C57BL/6 wild type mice, C57BL/6 ERαKO mice, or 129 ERβKO mice were pretreated with vehicle (black bars) or […] EE (gray bars) for 5 days followed by a 1 hour treatment with IL-1β. Liver expression levels of Fnk, JAB, LIX, bcl-3, and SHP (mean +/−SEM) were quantified by realtime PCR, with expression in animals receiving vehicle+PBS defined as 1.0.

effect on regulation of liver Fnk, JAB, LIX, bcl-3 and SHP expression vs IL-1β alone ([2]; mice, 1 or 10 mg/kg/day E2, 30 mg/kg/day genistein, 10 mg/kg/day ICI182780, plus IL-1β): magnitude was not as great | inhibition of IL-1β induction of Fnk, JAB, LIX and bcl-3 ([2]; mouse liver, 30 mg/kg/day genistein): inhibited
SMILES: O=c1c(-c2ccc(O)cc2)coc2cc(O)cc(O)c12 [Genistein, genistein]
induction of IPS [1]: no induction
